Reference: patent US20220387491A1, “METHODS OF MAKING CELLULAR THERAPIES” (Secura Bio, Inc., priority 2019, published 2022)
Entries after “also recorded” stand apart in the source; their conditions may differ.

Legend:
[1] = target: T1, PI3K-δ (Homo sapiens, UniProt O00329); assay: Whole blood assay, p-Akt S473 in LPS-stimulated monocytes; type: cell-based; parameters: from tissue; host or cells: whole blood; LPS-stimulated monocytes (gated by flow cytometry); conditions: for PI3K-δ inhibition at clinically achievable exposures (in words): whole blood assay related to clinical plasma exposure
T1 sequence (O00329 whole entry): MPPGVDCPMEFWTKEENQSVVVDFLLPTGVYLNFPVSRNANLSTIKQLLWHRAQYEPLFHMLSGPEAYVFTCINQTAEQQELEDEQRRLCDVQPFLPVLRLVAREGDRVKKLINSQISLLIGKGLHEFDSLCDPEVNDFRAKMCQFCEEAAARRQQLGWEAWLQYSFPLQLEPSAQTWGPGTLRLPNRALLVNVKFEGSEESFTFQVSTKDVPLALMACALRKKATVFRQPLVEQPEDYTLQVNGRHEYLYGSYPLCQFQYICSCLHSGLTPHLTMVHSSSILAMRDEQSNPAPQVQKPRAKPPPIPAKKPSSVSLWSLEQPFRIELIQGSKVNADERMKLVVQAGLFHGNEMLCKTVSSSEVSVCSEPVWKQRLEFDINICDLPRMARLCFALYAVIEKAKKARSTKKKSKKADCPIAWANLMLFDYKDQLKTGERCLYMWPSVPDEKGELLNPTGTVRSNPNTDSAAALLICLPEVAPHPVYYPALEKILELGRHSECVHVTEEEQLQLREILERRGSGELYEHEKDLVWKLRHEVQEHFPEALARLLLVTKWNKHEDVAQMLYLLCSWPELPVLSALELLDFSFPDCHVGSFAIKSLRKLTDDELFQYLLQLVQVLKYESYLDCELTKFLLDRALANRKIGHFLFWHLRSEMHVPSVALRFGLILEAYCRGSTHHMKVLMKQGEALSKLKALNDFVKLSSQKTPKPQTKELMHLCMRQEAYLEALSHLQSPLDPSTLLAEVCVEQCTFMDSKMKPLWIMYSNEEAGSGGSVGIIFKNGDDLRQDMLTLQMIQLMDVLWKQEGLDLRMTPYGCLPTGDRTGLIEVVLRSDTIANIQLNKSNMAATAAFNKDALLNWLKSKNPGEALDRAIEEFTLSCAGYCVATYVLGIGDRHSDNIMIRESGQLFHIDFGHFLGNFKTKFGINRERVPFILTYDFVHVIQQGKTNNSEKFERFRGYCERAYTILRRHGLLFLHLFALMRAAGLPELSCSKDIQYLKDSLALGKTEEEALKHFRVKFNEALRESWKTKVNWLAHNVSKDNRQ
T1 sequence (P27986 whole entry partner): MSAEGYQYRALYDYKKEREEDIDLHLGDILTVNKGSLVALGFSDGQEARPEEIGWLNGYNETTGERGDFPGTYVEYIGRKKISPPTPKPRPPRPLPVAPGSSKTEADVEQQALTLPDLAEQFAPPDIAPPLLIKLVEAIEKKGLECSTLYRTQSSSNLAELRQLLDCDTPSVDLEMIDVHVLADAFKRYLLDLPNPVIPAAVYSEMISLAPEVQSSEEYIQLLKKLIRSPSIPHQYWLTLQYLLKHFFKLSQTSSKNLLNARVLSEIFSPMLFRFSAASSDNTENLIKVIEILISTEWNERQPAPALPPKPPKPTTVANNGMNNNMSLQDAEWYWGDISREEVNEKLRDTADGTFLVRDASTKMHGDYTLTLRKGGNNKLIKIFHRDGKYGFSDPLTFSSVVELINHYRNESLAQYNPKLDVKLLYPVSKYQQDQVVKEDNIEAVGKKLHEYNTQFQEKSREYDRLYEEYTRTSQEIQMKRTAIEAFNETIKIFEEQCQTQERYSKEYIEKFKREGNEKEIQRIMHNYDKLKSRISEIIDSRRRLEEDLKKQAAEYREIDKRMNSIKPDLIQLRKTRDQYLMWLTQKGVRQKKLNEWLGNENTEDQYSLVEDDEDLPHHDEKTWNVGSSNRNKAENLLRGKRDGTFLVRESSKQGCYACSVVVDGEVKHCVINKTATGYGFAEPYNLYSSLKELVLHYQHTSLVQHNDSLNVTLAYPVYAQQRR
Method: (§1) The relative effects of different PI3K inhibitors on PI3K-δ and PI3K-γ cell signaling downstream of LPS and fMLP, respectively, were assessed in whole blood using phosphorylated (p)-Akt serine-473 as the readout. Briefly, LPS-stimulated monocytes and fMLP-stimulated monocytes were cultured in the presence of 2 μg/mL LPS or 50 ng/mL fMLP, respectively. After 10 minutes of stimulation, red blood cells were lysed and remaining leukocytes were fixed, permeabilized and stained with CD45, CD3, CD45RA, CD14, CD19 and p-Akt S473 (D9E clone) antibodies. Data was acquired on an LSRII cytometer (BD Biosciences) equipped with at least 4 lasers (405, 488, 561, and 640 nm). Monocytes were gated and the percentage of positive p-Akt monocytes was measured. IC50 dose curves were generated and IC50 values calculated.
(§2) Whole blood potencies against PI3K-δ and PI3K-γ were measured through inhibition of p-Akt in LPS-stimulated monocytes and fMLP-stimulated monocytes, respectively. Whole blood assay IC50 values, which encompass enzyme inhibition, cell penetration, and protein binding of inhibitors, are related to reported clinical plasma exposures of each agent at recommended phase II dose (RP2D).

[2] = target: T2, PI3K-γ (Homo sapiens, UniProt P48736); assay: PI3K-γ target inhibition in follicular lymphoma patients after oral dosing; type: in vivo; parameters: from tissue; host or cells: whole blood of follicular lymphoma patients after oral dosing
T2 sequence (P48736 whole entry): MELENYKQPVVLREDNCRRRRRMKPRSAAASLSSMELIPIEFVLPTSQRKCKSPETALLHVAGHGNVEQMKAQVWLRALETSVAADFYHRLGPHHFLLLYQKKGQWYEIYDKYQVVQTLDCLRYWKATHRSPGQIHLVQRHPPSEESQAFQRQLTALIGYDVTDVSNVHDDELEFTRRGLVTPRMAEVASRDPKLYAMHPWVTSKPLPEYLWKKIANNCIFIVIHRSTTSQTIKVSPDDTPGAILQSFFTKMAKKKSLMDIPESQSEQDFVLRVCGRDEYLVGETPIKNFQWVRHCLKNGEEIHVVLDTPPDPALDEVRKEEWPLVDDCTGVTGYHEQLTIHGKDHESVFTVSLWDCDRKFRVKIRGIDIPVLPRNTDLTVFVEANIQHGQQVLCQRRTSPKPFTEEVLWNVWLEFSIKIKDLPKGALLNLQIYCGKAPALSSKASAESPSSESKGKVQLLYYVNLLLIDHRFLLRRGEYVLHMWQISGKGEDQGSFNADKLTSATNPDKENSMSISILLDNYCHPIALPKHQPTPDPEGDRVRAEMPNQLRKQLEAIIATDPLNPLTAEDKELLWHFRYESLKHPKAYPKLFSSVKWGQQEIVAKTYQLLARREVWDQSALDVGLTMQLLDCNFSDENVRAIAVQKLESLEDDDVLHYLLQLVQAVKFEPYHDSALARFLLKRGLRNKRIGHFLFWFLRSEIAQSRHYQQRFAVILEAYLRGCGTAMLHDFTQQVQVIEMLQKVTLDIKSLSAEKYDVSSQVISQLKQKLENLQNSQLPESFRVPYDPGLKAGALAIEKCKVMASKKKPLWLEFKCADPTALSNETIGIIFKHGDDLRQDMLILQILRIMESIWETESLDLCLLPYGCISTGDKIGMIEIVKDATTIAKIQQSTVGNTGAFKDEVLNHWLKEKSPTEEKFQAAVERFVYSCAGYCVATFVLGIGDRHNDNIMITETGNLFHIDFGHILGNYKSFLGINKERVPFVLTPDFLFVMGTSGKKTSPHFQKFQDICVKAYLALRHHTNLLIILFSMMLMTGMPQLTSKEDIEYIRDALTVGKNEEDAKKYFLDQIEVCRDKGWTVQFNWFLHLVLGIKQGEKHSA
Method: as §1
(§3) At cycle 2 Day 1 pre, a timepoint corresponding to the 12 hour point when the next dose is to be given, the degree of inhibition is decreased; however, inhibition is re-established with the administration of the next dose.
Accordingly, BID should then re-establish inhibition in this 60-70% range.

[3] = target: T1, PI3K-δ; assay: PI3K-δ target inhibition in follicular lymphoma patients after oral dosing; type: in vivo; parameters: from tissue; host or cells: whole blood of follicular lymphoma patients after oral dosing
Method: as §1, §3

[4] = test system: T cells from human donors or CLL patients; assay: Ex vivo T cell expansion; type: cell-based
[5] = test system: T cells; assay: Expression of T cell exhaustion markers (TIM-3, LAG-3) by flow cytometry; type: cell-based, human
From the text: (§4) These early memory T cells populations have been associated with CAR-T cells that induce complete remissions.

[6] = test system: T cells taken from CLL patients; assay: Proportion of early memory T cell populations; type: cell-based, human; conditions: 200 nM; compared with standard culture conditions
From the text: as §4

[7] = read-out: Cmax (ss); reported clinical plasma exposure at recommended phase II dose (RP2D); cited from earlier work
[8] = test system: CD19 CAR-T cells; assay: CAR-T-mediated cytotoxicity against tumor cells; type: cell-based; conditions: addition during generation of CD19 CAR-T cells
From the text: as §4

[9] = target: T2, PI3K-γ; assay: Whole blood assay, p-Akt S473 in fMLP-stimulated monocytes; type: cell-based; parameters: from tissue; host or cells: whole blood; fMLP-stimulated monocytes (gated by flow cytometry); conditions: for PI3K-γ inhibition at clinically achievable exposures (in words): whole blood assay related to clinical plasma exposure
Method: Briefly, LPS-stimulated monocytes and fMLP-stimulated monocytes were cultured in the presence of 2 μg/mL LPS or 50 ng/mL fMLP, respectively. After 10 minutes of stimulation, red blood cells were lysed and remaining leukocytes were fixed, permeabilized and stained with CD45, CD3, CD45RA, CD14, CD19 and p-Akt S473 (D9E clone) antibodies. […] Monocytes were gated and the percentage of positive p-Akt monocytes was measured. IC50 dose curves were generated and IC50 values calculated.
as §2

Row | SMILES | PI3K-δ inhibition at clinically achievable exposures (in words) [1] | concentration of maximal effect on T cell expansion [4] | Cmax [7] | PI3K-γ inhibition at clinically achievable exposures (in words) [9] | further results
1 | C[C@H](Nc1ncnc2[nH]cnc12)c1cc2cccc(Cl)c2c(=O)n1-c1ccccc1 [Duvelisib, (S)-3-(1-((9H-purin-6-yl)amino)ethyl)-8-chloro-2-phenylisoquinolin-1(2H)-one] | inhibited both PI3K-δ and PI3K-γ | 40 nM | 2.5 µM | inhibited both PI3K-δ and PI3K-γ | degree of inhibition of PI3K-γ ([2]; cycle 2 Day 1 pre): decreased; inhibition of PI3K-γ ([2]; follicular lymphoma patients, 25 mg, 1 and 4 hours): 60-70%; degree of inhibition of PI3K-δ ([3]; cycle 2 Day 1 pre (12 hour point before next dose)): decreased; inhibition at 25 mg ([3]; human, follicular lymphoma patients, 25 mg oral, 1 and 4 hours after dosing): 90 to 95%; increase in T cell expansion ([4]; T cells from human donors or CLL patients): 3 to 4 fold; expression of T cell exhaustion markers (TIM-3, LAG-3) [5]: reduces expression; proportion of early memory T cell populations [6]: increases the proportion of early memory T cell populations; cytotoxic activity of CAR-T cells to kill tumor cells [8]: increases
2 | C[C@H](NC(=O)c1c(N)nn2cccnc12)c1cc2cccc(C#Cc3cnn(C)c3)c2c(=O)n1-c1ccccc1 [IPI-549, 2-amino-N-[(1S)-1-[8-[2-(1-methylpyrazol-4-yl)ethynyl]-1-oxo-2-phenylisoquinolin-3-yl]ethyl]pyrazolo[1,5-a]pyrimidine-3-carboxamide] | not PI3K-δ |  | 9.1 µM |  | 
3 | CC[C@H](Nc1ncnc2[nH]cnc12)c1nc2cccc(F)c2c(=O)n1-c1ccccc1 [Idelalisib, (S)-2-(1-(9H-purin-6-ylamino)propyl)-5-fluoro-3-phenylquinazolin-4(3H)-one] | single isoform inhibition; also recorded: sufficient to inhibit PI3K-δ | 1000 nM | 4.8 µM | not sufficient to inhibit PI3K-γ | 
4 | CC[C@H](Nc1ncnc2nc[nH]c12)c1oc2ccccc2c(=O)c1-c1cccc(F)c1 [Tenalisib, (S)-2-(1-((7H-purin-6-yl)amino)propyl)-3-(3-fluorophenyl)-4H-chromen-4-one] | did not meaningfully inhibit |  |  | did not meaningfully inhibit | IC50 ([1]; whole blood, inhibition of p-Akt in LPS-stimulated monocytes, read-out: PI3Kδ IC50): > 50 µM; PI3Kγ IC50 ([9]; whole blood, inhibition of p-Akt in fMLP-stimulated monocytes): No inhibition
5 | CC(C)Oc1ccc(-c2nn([C@@H](C)c3oc4ccc(F)cc4c(=O)c3-c3cccc(F)c3)c3ncnc(N)c23)cc1F [Umbralisib] |  |  | 9.2 µM |  | IC50 [9]: 55 ± 16 µM
